Measured values from the NIST ThermoML archive (doi:10.1021/je050116g).

Tests used:
[1] = 298.15 K; 101.33 kPa; Liquid
[2] = xn = mol fraction of the nth substance listed; settings: 298.15 K, 101.33 kPa, Liquid
[3] = relative permittivity at various frequencies (dimensionless); xn = mol fraction of the nth substance listed; settings: 298.15 K, 101.33 kPa, Liquid, Frequency=0.03 MHz, Parallel plate capacitor

CCO [ethanol]
Settings	mass density [kg/m3]
[1]	785.055

CCCCCCCCCCO [decan-1-ol]
Settings	mass density [kg/m3]
[1]	826.421

CCCCCCCCCCCC [dodecane] + CCCO
Settings	mass density [kg/m3]	relative permittivity
[2], x2 = 0.00273	745.43	–
[2], x2 = 0.00429	745.426	–
[2], x2 = 0.007	745.424	–
[2], x2 = 0.01162	745.429	–
[2], x2 = 0.0181	745.456	–
[2], x2 = 0.0248	745.504	–
[2], x2 = 0.04304	745.689	–
[2], x2 = 0.06062	745.916	–
[2], x2 = 0.07866	746.164	–
[2], x2 = 0.1025	746.495	–
[3], x2 = 0.001113	–	2.00841
[3], x2 = 0.001805	–	2.00926
[3], x2 = 0.00262	–	2.01026
[3], x2 = 0.003582	–	2.01146
[3], x2 = 0.004766	–	2.01292
[3], x2 = 0.006045	–	2.01449
[3], x2 = 0.00741	–	2.01613
[3], x2 = 0.00918	–	2.01815
[3], x2 = 0.01131	–	2.0204
[3], x2 = 0.01408	–	2.02313
[3], x2 = 0.01818	–	2.02685
[3], x2 = 0.0234	–	2.03119
[3], x2 = 0.02953	–	2.03612
[3], x2 = 0.03486	–	2.04033
[3], x2 = 0.04243	–	2.04635
[3], x2 = 0.05033	–	2.05272
[3], x2 = 0.06022	–	2.06108
[3], x2 = 0.07048	–	2.07019
[3], x2 = 0.08292	–	2.08206
[3], x2 = 0.09516	–	2.09474
[3], x2 = 0.11	–	2.11157

CCCCCCO [hexan-1-ol] + CCCCCCCCCCCC
Settings	mass density [kg/m3]	relative permittivity
[2], x1 = 0.00175	745.477	–
[2], x1 = 0.0046	745.539	–
[2], x1 = 0.00826	745.625	–
[2], x1 = 0.01788	745.888	–
[2], x1 = 0.02646	746.157	–
[2], x1 = 0.03537	746.455	–
[2], x1 = 0.04959	746.947	–
[2], x1 = 0.0656	747.525	–
[2], x1 = 0.07934	748.03	–
[2], x1 = 0.09708	748.704	–
[3], x1 = 0.000504	–	2.00799
[3], x1 = 0.001087	–	2.00873
[3], x1 = 0.001795	–	2.00963
[3], x1 = 0.002783	–	2.01089
[3], x1 = 0.004043	–	2.0125
[3], x1 = 0.005459	–	2.0143
[3], x1 = 0.006744	–	2.0159
[3], x1 = 0.008507	–	2.01802
[3], x1 = 0.01046	–	2.02024
[3], x1 = 0.01278	–	2.02269
[3], x1 = 0.01656	–	2.02639
[3], x1 = 0.02	–	2.02952
[3], x1 = 0.02535	–	2.03412
[3], x1 = 0.03116	–	2.03887
[3], x1 = 0.03741	–	2.04388
[3], x1 = 0.04472	–	2.0497
[3], x1 = 0.05324	–	2.05652
[3], x1 = 0.06176	–	2.06346
[3], x1 = 0.07197	–	2.072
[3], x1 = 0.08324	–	2.08177
[3], x1 = 0.0941	–	2.09164
[3], x1 = 0.1052	–	2.10222

CCCCCCCCCCCC [dodecane]
Settings	mass density [kg/m3]
[1]	745.435

CCCO [propan-1-ol]
Settings	mass density [kg/m3]
[1]	799.564

CCCCCCCCCCCC [dodecane] + CO
Settings	mass density [kg/m3]	relative permittivity
[2], x2 = 0.00135	745.406	–
[2], x2 = 0.00185	745.4	–
[2], x2 = 0.00406	745.379	–
[2], x2 = 0.00925	745.332	–
[2], x2 = 0.01113	745.324	–
[2], x2 = 0.01828	745.284	–
[2], x2 = 0.02969	745.265	–
[2], x2 = 0.0464	745.259	–
[2], x2 = 0.0642	745.271	–
[2], x2 = 0.08321	745.289	–
[2], x2 = 0.09518	745.306	–
[3], x2 = 0.000771	–	2.00822
[3], x2 = 0.001621	–	2.00927
[3], x2 = 0.00274	–	2.01066
[3], x2 = 0.003489	–	2.01159
[3], x2 = 0.004562	–	2.01293
[3], x2 = 0.005874	–	2.01448
[3], x2 = 0.008056	–	2.01694
[3], x2 = 0.01061	–	2.01951
[3], x2 = 0.0131	–	2.02187
[3], x2 = 0.01491	–	2.0235
[3], x2 = 0.01897	–	2.02697
[3], x2 = 0.02456	–	2.03155
[3], x2 = 0.03063	–	2.03644
[3], x2 = 0.03798	–	2.04263
[3], x2 = 0.04663	–	2.05023
[3], x2 = 0.05524	–	2.05834
[3], x2 = 0.06621	–	2.06954
[3], x2 = 0.08007	–	2.08561

CCCCCO [pentan-1-ol]
Settings	mass density [kg/m3]
[1]	810.883

CCCCCCCCCCCC [dodecane] + CCCCO
Settings	mass density [kg/m3]	relative permittivity
[2], x2 = 0.00247	745.45	–
[2], x2 = 0.00337	745.455	–
[2], x2 = 0.00504	745.466	–
[2], x2 = 0.0089	745.497	–
[2], x2 = 0.01274	745.535	–
[2], x2 = 0.01568	745.569	–
[2], x2 = 0.02553	745.703	–
[2], x2 = 0.04126	745.979	–
[2], x2 = 0.06044	746.372	–
[2], x2 = 0.07754	746.736	–
[2], x2 = 0.1034	747.278	–
[3], x2 = 0.000394	–	2.00775
[3], x2 = 0.001092	–	2.00861
[3], x2 = 0.001852	–	2.00955
[3], x2 = 0.002663	–	2.01056
[3], x2 = 0.003575	–	2.01169
[3], x2 = 0.004582	–	2.01295
[3], x2 = 0.005742	–	2.01438
[3], x2 = 0.007082	–	2.016
[3], x2 = 0.008478	–	2.01762
[3], x2 = 0.009996	–	2.0193
[3], x2 = 0.01196	–	2.02134
[3], x2 = 0.01472	–	2.02405
[3], x2 = 0.01783	–	2.02693
[3], x2 = 0.02067	–	2.02939
[3], x2 = 0.0262	–	2.03399
[3], x2 = 0.03349	–	2.03984
[3], x2 = 0.04201	–	2.04663
[3], x2 = 0.05197	–	2.05466
[3], x2 = 0.06201	–	2.06298
[3], x2 = 0.07269	–	2.07228
[3], x2 = 0.08613	–	2.08475
[3], x2 = 0.09876	–	2.09732

CCCCCCO [hexan-1-ol]
Settings	mass density [kg/m3]
[1]	815.275

CCCCCCCCCO [nonan-1-ol] + CCCCCCCCCCCC
[2]
Settings	mass density [kg/m3]
x1 = 0.00099	745.467
x1 = 0.0047	745.637
x1 = 0.00777	745.786
x1 = 0.01456	746.133
x1 = 0.02651	746.79
x1 = 0.03533	747.291
x1 = 0.05117	748.212
x1 = 0.06465	749.011
x1 = 0.08043	749.97
x1 = 0.09832	751.064
